Source: patent publication US10508109B2 (priority 2015, dated 2019)
Where two headings read alike, the source gives them in different places.

What was measured:
[1] = target: SUV39H2 (Homo sapiens (Human), UniProt Q9H5I1); conditions: read-out: IC50 (μM) Suv 39H2 assay; enzyme assay
[2] = tested on: A549; experiment: Cell-based assay, anti-proliferative activity (Cell Counting Kit-8, 72 hours); conditions: Homo sapiens, A549 cells, read-out: IC50 (μM) A549
In short: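 After compound exposure of cells in 96-well plates, growth was measured colorimetrically and converted into IC50 values.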

[3] = tested on: CCD-18Co; experiment: as above; conditions: Homo sapiens, CCD-18Co cells, read-out: IC50 (μM) CCD-18Co
In short: (§1)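 Seed cells in 96-well plates; add serially diluted inhibitor (1.5625 to 100 micro-M plus vehicle); incubate 72 hours; quantify viable growth by CCK-8 and calculate IC50.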

[4] = tested on: HCT-116; experiment: as above; conditions: Homo sapiens, HCT-116 cells, read-out: IC50 (μM) HCT-116
In short: as §1

[5] = tested on: PC14; experiment: as above; conditions: Homo sapiens, PC-14, PC14 cells, read-out: IC50 (μM) PC14
In short: as §1

[6] = tested on: HFL1; experiment: as above; conditions: Homo sapiens, HFL1 cells, read-out: IC50 (μM) HFL1
In short: as §1

Sequence of SUV39H2 (Q9H5I1 whole entry): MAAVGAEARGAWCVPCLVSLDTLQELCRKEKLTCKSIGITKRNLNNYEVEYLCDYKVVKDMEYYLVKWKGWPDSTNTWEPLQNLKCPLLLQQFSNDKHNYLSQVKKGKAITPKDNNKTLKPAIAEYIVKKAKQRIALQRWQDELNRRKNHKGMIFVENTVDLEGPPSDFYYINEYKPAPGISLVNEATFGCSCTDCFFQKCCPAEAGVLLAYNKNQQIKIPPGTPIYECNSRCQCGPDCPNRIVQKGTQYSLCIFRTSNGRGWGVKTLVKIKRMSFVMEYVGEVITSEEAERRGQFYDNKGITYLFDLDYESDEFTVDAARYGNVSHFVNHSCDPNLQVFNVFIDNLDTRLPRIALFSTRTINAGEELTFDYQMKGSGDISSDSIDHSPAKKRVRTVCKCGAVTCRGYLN

| Structure (SMILES) | IC50 [1] [µM] | IC50 ([2]; 72 hours, Cell Counting Kit-8) [µM] | IC50 ([3]; 72 hours, Cell Counting Kit-8) [µM] | IC50 ([4]; 72 hours, Cell Counting Kit-8) [µM] | IC50 ([5]; 72 hours, Cell Counting Kit-8) [µM] | IC50 ([6]; 72 hours, Cell Counting Kit-8) [µM] | IC50 ([2]; Cell Counting Kit-8, 72 hours) [µM] | IC50 ([3]; Cell Counting Kit-8, 72 hours) [µM] | IC50 ([4]; Cell Counting Kit-8, 72 hours) [µM] | IC50 ([5]; Cell Counting Kit-8, 72 hours) [µM] | IC50 ([6]; Cell Counting Kit-8, 72 hours) [µM] |
| --- | --- | --- | --- | --- | --- | --- | --- | --- | --- | --- | --- |
| COc1cc(OCCCN(C)C)c(-c2cn3ccc(N4CCN(S(=O)(=O)C(C)C)CC4)nc3n2)cc1Cl [Example 226, 3-(4-chloro-2-(7-(4-(isopropylsulfonyl)piperazin-1-yl)imidazo[1,2-a]-pyrimidin-2-yl)-5-methoxyphenoxy)-N,N-dimethylpropan-1-amine] | 0.0655 | 10 | 10 | 7.8 | 5.5 | 8.9 |  |  |  |  |  |
| COc1cc(OC)c(-c2cn3ccc(-c4ccc(C(=O)NC5CCNCC5)cc4)cc3n2)cc1Cl [Example 268, 4-(2-(5-chloro-2,4-dimethoxyphenyl)imidazo[1,2-a]pyridin-7-yl)-N-(piperidin-4-yl)benzamide] | 0.0383 | 4.3 | 4.3 | 2.8 | 3 | 3.8 |  |  |  |  |  |
| COC(=O)N1CCN(c2ccn3cc(-c4cc(Cl)c(OC)cc4OC)nc3c2)CC1 [Example 99, methyl 4-[2-(5-chloro-2,4-dimethoxyphenyl)imidazo[1,2-a]pyridine-7-yl]piperazine-1-carboxylate] | 0.00606 |  |  |  |  |  | 1.5 | 1.6 | 1.5 | 1.9 | 1.8 |
| COc1cc(C)c(-c2cn3ccc(N4CCN(S(=O)(=O)C5CC5)C(CO)C4)cc3n2)cc1Cl (stereo not drawn) [Example 262, (4-(2-(5-chloro-4-methoxy-2-methylphenyl)imidazo[1,2-a]pyridin-7-yl)-1-(cyclopropylsulfonyl)piperazin-2-yl)methanol] | 0.0453 | 2.4 | 5.5 | 3.2 | 1.1 | 3.2 |  |  |  |  |  |
| COc1cc(OC)c(-c2cn3ccc(OC4CCN(S(=O)(=O)c5nccn5C)CC4)cc3n2)cc1Cl [Example 288, 2-(5-chloro-2,4-dimethoxyphenyl)-7-((1-((1-methyl-1H-imidazol-2-yl)sulfonyl)piperidin-4-yl)oxy)imidazo[1,2-a]pyridine] | 0.0928 | 0.8 | 1.5 | 0.98 | 1.2 | 1.7 |  |  |  |  |  |
| COc1cc(OC)c(-c2cn3ccc(N4CCN(CCCN(C)C)C4=O)cc3n2)cc1Cl [Example 167, 1-(2-(5-chloro-2,4-dimethoxyphenyl)imidazo[1,2-a]pyridin-7-yl)-3-(3-(dimethylamino)propyl)imidazolidin-2-one] | 0.0124 |  |  |  |  |  | 6.4 | 6.9 | 6.8 | 3.9 | 6.5 |
| COc1cc(OC)c(-c2cn3ccc(OC4CCN(S(=O)(=O)c5cccs5)CC4)cc3n2)cc1Cl [Example 280, 2-(5-chloro-2,4-dimethoxyphenyl)-7-((1-(thiophen-2-ylsulfonyl)piperidin-4-yl)oxy)imidazo[1,2-a]pyridine] | 0.0711 | 2 | 1.7 | 1.9 | 0.8 | 1.6 |  |  |  |  |  |
| COc1cc(OC)c(-c2cn3ccc(N4CCN(c5ccnc(N6CCCCC6)n5)CC4)cc3n2)cc1Cl [Example 295, 2-(5-chloro-2,4-dimethoxyphenyl)-7-(4-(2-(piperidin-1-yl)pyrimidin-4-yl)piperazin-1-yl)imidazo[1,2-a]pyridine] | 0.0598 | 0.89 | 1.3 | 0.93 | 0.93 | 1.4 |  |  |  |  |  |
| COc1cc(OC)c(-c2nc3cc(N4CCN(C(=O)OC(C)(C)C)CC4)ccn3c2I)cc1Cl [Example 290, tert-butyl 4-(2-(5-chloro-2,4-dimethoxyphenyl)-3-iodoimidazo[1,2-a]-pyridin-7-yl)piperazine-1-carboxylate] | 0.00975 | 1.3 | 1.4 | 1.3 | 0.61 | 1.3 |  |  |  |  |  |
| COc1cc(OC)c(-c2cn3ccc(N4CCC(CO)CC4)cc3n2)cc1Cl [Example 41, (1-(2-(5-chloro-2,4-dimethoxyphenyl)imidazo[1,2-a]pyridine-7-yl)piperidin-4-yl)methanol] | 0.0054 |  |  |  |  |  | 3.2 | 3.1 | 3.5 | 2.8 | 2.9 |
| COc1cc(OC)c(-c2cn3ccc(N4CCCN(S(C)(=O)=O)CC4)cc3n2)cc1Cl [Example 201, 2-(5-chloro-2,4-dimethoxyphenyl)-7-[4-(methylsulfonyl)-1,4-diazepan-1-yl]imidazo[1,2-a]pyridine] | 0.0064 |  |  |  |  |  | 2.2 | 3.2 | 2.7 | 1.9 | 3 |
| COc1cc(OCCCN(C)C)c(-c2cn3ccc(N4CCCNCC4)cc3n2)cc1Cl [Example 209, 3-{2-[7-(1,4-diazepan-1-yl)imidazo[1,2-a]pyridin-2-yl]-4-chloro-5-methoxyphenoxy}-N,N-dimethylpropan-1-amine] | 0.00207 |  |  |  |  |  | 3 | 3.2 | 3.7 | 2.7 | 1.2 |
| COc1cc(OC)c(-c2cn3ccc(N4CCN(CCCN(C)C)CC4)cc3n2)cc1Br [Example 130, 3-(4-(2-(5-bromo-2,4-dimethoxyphenyl)imidazo[1,2-a]pyridin-7-yl)-piperazin-1-yl)-N,N-dimethylpropan-1-amine] | 0.003 |  |  |  |  |  | 2.7 | 6.6 | 2.8 | 2.6 | 4.6 |
| COc1cc(OC)c(-c2cn3ccc(N4CCC(NS(=O)(=O)C5CC5)CC4)cc3n2)cc1Cl [Example 126, N-{1-[2-(5-chloro-2,4-dimethoxyphenyl)imidazo[1,2-a]pyridin-7-yl]piperidin-4-yl}cyclopropanesulfonamide] | 0.014 |  |  |  |  |  | 2.1 | 1.8 | 1.9 | 3.1 | 1.4 |
| COc1cc(OC)c(-c2cn3ccc(N4CCN(CCN5CCN(C(=O)OC(C)(C)C)CC5)CC4)cc3n2)cc1Cl [Example 136, tert-butyl 4-(2-(4-(2-(5-chloro-2,4-dimethoxyphenyl)imidazo[1,2-a]pyridin-7-yl)piperazin-1-yl)ethyl)piperazine-1-carboxylate] | 0.0166 |  |  |  |  |  | 1.5 | 1.8 | 1.5 | 2.2 | 1.8 |
| COc1cc(OC)c(-c2cn3ccc(-c4ccc(C(=O)NCC5CCNCC5)cc4)cc3n2)cc1Cl [Example 267, 4-(2-(5-chloro-2,4-dimethoxyphenyl)imidazo[1,2-a]pyridin-7-yl)-N-(piperidin-4-ylmethyl)benzamide] | 0.0458 | 10 | 10 | 10 | 10 | 10 |  |  |  |  |  |
| COc1cc(OC)c(-c2cn3cc(Br)c(N4CCNCC4)nc3n2)cc1Cl [Example 220, 6-bromo-2-(5-chloro-2,4-dimethoxyphenyl)-7-(piperazin-1-yl)imidazo[1,2-a]pyrimidine] | 0.0262 | 2.6 | 3.1 | 2.4 | 2.4 | 3.1 |  |  |  |  |  |
| COc1cc(OC)c(-c2cn3ccc(N4CCC(NS(=O)(=O)CC(C)C)CC4)cc3n2)cc1Cl [Example 185, N-{1-[2-(5-Chloro-2,4-dimethoxyphenyl)imidazo[1,2-a]pyridin-7-yl]piperidin-4-yl}-2-methylpropane-1-sulfonamide] | 0.0127 |  |  |  |  |  | 1.6 | 1.9 | 1.1 | 1.4 | 2 |
